Measured values reported in patent US8119841B2 (Novartis AG, priority 2006, dated 2012).
Values belong to the molecule of their own block, whether it stands above or below them.

Columns and labels:
[1] = dynamic vapor sorption isotherm; assay type: physicochemical; details: for reversibility of hygroscopicity: up to 60% R.H. at 25° C.
Text: B) Dynamic Vapor Sorption Isotherm of Modification A, Modification B and Amorphous Material: In the following tables 7 and 8, R.H. stands for Relative Humidity, Sorpt. for Sorption and Desorpt. for Desorption.

[2] = equilibration in solvents, solid investigated by XRPD; assay type: physicochemical; parameters: key to XRPD after equilibration: +: change detected; −: no change detected; //: not carried out as substance too soluble; details: for change of the form: in cyclohexane or n-heptane; for XRPD after equilibration: 25 degree Celsius
Description: Between 200 mg to 700 mg of drug substance are equilibrated with 0.5 to 1 ml of solvent for at least 24 h in a water bath at the determined temperature +/−0.1° C. After equilibration, the solutions are filtered. The solid part is investigated by XRPD (X-ray Powder Diffraction).

[3] = amorphous material kept under organic solvent vapor, XRPD; assay type: physicochemical; parameters: key: +: change detected; −: no change detected; //: not carried out as substance too soluble; details: room temperature, at least one week
Description: For example, about 100 mg of amorphous material are placed under organic solvent vapor for at least one week at room temperature. The solid material is investigated by XRPD (X-ray powder diffraction), and the following results are obtained: […]

[4] = heat of dissolution in water; assay type: physicochemical; details: about 100 mg in 100 ml of water, 25° C.; mean of three determinations
Description: About 100 mg of material is placed in a sealed glass ampoule. After equilibration at 25° C., the ampoule is broken in 100 ml of water.

[5] = XRPD at various relative humidities; assay type: physicochemical
Description: (§1) The aim is to evaluate the influence of the storage condition on the crystalline form of SPP100 hemifumarate For this purpose, two different experiments have been performed. The first one consists to submit SPP100 hemifumarate modification A to a nitrogen flow and to record at various time the corresponding XRPD pattern. During the second experiment the influence of relative humidity on the crystalline modification A is determined by XRPD measurement.

[6] = XRPD during storage under nitrogen flow; assay type: physicochemical
Description: as §1

[7] = stability of solvate single crystals to air and humidity; assay type: physicochemical
Description: Characterisation: Structurally, solvate forms SC and SD are characterized by single crystal X-ray diffraction. The single crystals are grown using heptane as antisolvent. The isopropanol and the ethanol solvate of SPP100 hemifumarate can be grown as small needles from isopropanol, or ethanol solution respectively, by precipitation with heptane antisolvent. As there the data quality is better, only the ethanol solvate form obtained from ethanol/heptane (so called SD, corresponding to Form D mentioned in Example 9) is discussed in detail. But from the data the conclusion can be drawn that the isopropanol solvate (so called SC) is isostructural to the ethanol solvate (when heptane is used as antisolvent). The solvate SD stoichiometry consists of one SPP100 molecule, 1/2 fumarate group and 3 solvent molecules.
They consist of a distinct channel structure along the crystallographic b-axis which occupies about 25% of the whole crystal structure volume. […] Hydrogen bonds can be found between SPP100 (hydroxyl group and protonated amine group of SPP100) and the fumarate group and between SPP100 molecules (protonated amine group and oxygen). Another H-bond exists between ethanol and SPP100 (oxygen and amine group). Dominating propagation vector of the H-bonds is the crystallographic b-axis. […]

[8] = test system: patients with NYHA class II-IV heart failure and LVEF <35%; details: in vivo; cited from earlier work
[9] = test system: severely sodium-depleted marmoset monkeys; details: orally or intravenously; cited from earlier work
[10] = test system: patients with mild to moderate hypertension; details: aliskiren 75 mg to 300 mg; 4 weeks duration; cited from earlier work

SMILES: COCCCOc1cc(C[C@@H](C[C@H](N)[C@@H](O)C[C@H](C(=O)NCC(C)(C)C(N)=O)C(C)C)C(C)C)ccc1OC [Modification A, aliskiren hemifumarate]
hygroscopic behavior [1]: strong hygroscopic behavior
Sorpt. wt % 1st ([1]; R.H. 0 %): 0.00 wt %
reversibility of hygroscopicity [1]: reversible
heat of dissolution, Mean [4]: -7.55 kcal/mol
XRPD after equilibration ([2]; Acetone): + chemical reaction
XRPD after equilibration ([2]; Acetonitrile): −
XRPD after equilibration ([2]; Cyclohexane): −
XRPD after equilibration ([2]; DMAc): + Typ III
XRPD after equilibration ([2]; Dioxane): + Typ III
XRPD after equilibration ([2]; Isopropanol): + Mod. B
XRPD after equilibration ([2]; Methylethylketone): + chemical reaction
XRPD after equilibration ([2]; Pentanol): + Typ V
XRPD after equilibration ([2]; TBME): + amorphous + Typ II
XRPD after equilibration ([2]; Tetrahydrofurane): + Typ III
XRPD after equilibration ([2]; Toluol): + amorphous
change of the form [2]: No change
XRPD after equilibration ([2]; n-heptane): −
XRPD ([5]; 0 h, RH 0%*): Mod A
XRPD ([5]; 2.55 h, RH 10%): Mod A
XRPD ([5]; 5.01 h, RH 25%): Mod A
XRPD ([5]; 7.4 h, RH 35%): Mod A
XRPD ([5]; 9.8 h, RH 45%): Mod A
XRPD ([5]; 24.23 h, RH 45%): Mod A
XRPD ([5]; 26.86 h, RH 60%): Mod A
XRPD ([5]; 32.51 h, RH 70%): Mod A
XRPD ([5]; 47.6 h, RH 70%): Mod A
XRPD ([5]; 143.9 h, RH 70%): Mod A
Change ([6]; 0.00 hour): none
XRPD ([6]; 0.00 hour): Mod A
Change ([6]; 2.25 hour): none
XRPD ([6]; 2.25 hour): Mod A
Change ([6]; 4.53 hour): none
XRPD ([6]; 4.53 hour): Mod A
Change ([6]; 7.80 hour): none
XRPD ([6]; 7.80 hour): Mod A
Change ([6]; 13.10 hour): none
XRPD ([6]; 13.10 hour): Mod A
Change ([6]; 14.75 hour): none
XRPD ([6]; 14.75 hour): Mod A

SMILES: COCCCOc1cc(C[C@@H](C[C@H](N)[C@@H](O)C[C@H](C(=O)NCC(C)(C)C(N)=O)C(C)C)C(C)C)ccc1OC [SC, aliskiren hemifumarate]
stability of the structure to air and humidity [7]: very sensible to air and humidity and decompose rapidly

SMILES: COCCCOc1cc(C[C@@H](C[C@H](N)[C@@H](O)C[C@H](C(=O)NCC(C)(C)C(N)=O)C(C)C)C(C)C)ccc1OC [aliskiren, 2(S),4(S),5(S),7(S)-N-(3-amino-2,2-dimethyl-3-oxopropyl)-2,7-di(1-methylethyl)4-hydroxy-5-amino-8-[4-methoxy-3-(3-methoxy-propoxy)phenyl]-octanamide]
PRA [8]: inhibited
angiotensin II levels [8]: Trends towards reduced
mean arterial pressure [9]: sustained reductions
plasma concentrations of active and total renin [9]: significant increases
plasma renin activity [9]: complete inhibition
blood pressure [10]: Dose dependent decreases

SMILES: CCOC(=O)[C@H](CCc1ccccc1)N[C@@H](C)C(=O)N1[C@H](C(=O)O)C[C@@H]2CCC[C@@H]21 [ramipril]
PRA [8]: increased
angiotensin II levels [8]: Trends towards reduced
effects on hormonal parameters [8]: No deleterious effects

Continued, values first:

hygroscopic behavior [1]: strong hygroscopic behavior
reversibility of hygroscopicity [1]: reversible
change of the form [2]: No change
Modification obtained by XRPD ([3]; 1-hexanol vapor): + Typ V
Modification obtained by XRPD ([3]; 2-propanol vapor): + Typ V
Modification obtained by XRPD ([3]; Acetonitrile vapor): + Typ. IV
Modification obtained by XRPD ([3]; Dimethylformamide vapor): Mainly amorphous
Modification obtained by XRPD ([3]; Ethanol vapor): Amorphous + Typ. V
Modification obtained by XRPD ([3]; Ethyl acetate vapor): + amorphous + small amount of Typ. III
Modification obtained by XRPD ([3]; Methyl acetate vapor): + Typ I
Modification obtained by XRPD ([3]; TBME vapor): −
Modification obtained by XRPD ([3]; Tetrahydrofurane vapor): + Typ III
Modification obtained by XRPD ([3]; Toluene vapor): −
Modification obtained by XRPD ([3]; n-butanol vapor): + Typ. V
SMILES: COCCCOc1cc(C[C@@H](C[C@H](N)[C@@H](O)C[C@H](C(=O)NCC(C)(C)C(N)=O)C(C)C)C(C)C)ccc1OC [Amorphous, aliskiren hemifumarate]

hygroscopic behavior [1]: strong hygroscopic behavior
hygroscopicity compared among the 3 modifications [1]: least hygroscopic form
Desorpt wt % 2nd ([1]; R.H. 0 %): 0.04 wt %
Sorpt. wt % 1st ([1]; R.H. 0 %): 0.00 wt %
Desorpt wt % 2nd ([1]; R.H. 10 %): 2.33 wt %
Sorpt. wt % 1st ([1]; R.H. 10 %): 0.94 wt %
Desorpt wt % 2nd ([1]; R.H. 20 %): 3.17 wt %
Sorpt. wt % 1st ([1]; R.H. 20 %): 1.69 wt %
Desorpt wt % 2nd ([1]; R.H. 30 %): 3.76 wt %
Sorpt. wt % 1st ([1]; R.H. 30 %): 2.53 wt %
Desorpt wt % 2nd ([1]; R.H. 40 %): 4.47 wt %
Sorpt. wt % 1st ([1]; R.H. 40 %): 3.68 wt %
Desorpt wt % 2nd ([1]; R.H. 50 %): 5.65 wt %
Sorpt. wt % 1st ([1]; R.H. 50 %): 5.52 wt %
Desorpt wt % 2nd ([1]; R.H. 60 %): 7.68 wt %
Sorpt. wt % 1st ([1]; R.H. 60 %): 7.68 wt %
reversibility of hygroscopicity [1]: reversible
heat of dissolution, Mean [4]: -5.88 kcal/mol
change of the form [2]: No change
SMILES: COCCCOc1cc(C[C@@H](C[C@H](N)[C@@H](O)C[C@H](C(=O)NCC(C)(C)C(N)=O)C(C)C)C(C)C)ccc1OC [Modification B, aliskiren hemifumarate]
